Entries after “also recorded” stand apart in the source; their conditions may differ. No end group written: not given here.
How the values were obtained:
[1] = system: GFs (TGF-β1, PDGF-BB, VEGF, FGF-2); assay: Binding of growth factors to FN domains, GFs reported together
Experimental: (§1) 20 μl of 50% v/v peptide-agarose beads are incubated with 125I-PDGF in 0.1 ml of binding buffer (DMEM+2% BSA) at room temperature for 2 hours with rotation. Beads are washed 6 times with DMEM. Bound PDGF-BB are released by the addition of 100 μl of 1M NaOH. The radioactivity bound to FN-beads are quantified in a γ-counter. Nonspecific binding are established from ^125I-PDGF binding to nonconjugated beads, then specific binding derived by subtraction of nonspecific binding from total binding. Binding constants (KD) and Bmax are determined from nonlinear regression of specific binding curves using Prism 4 from GraphPad Software, San Diego, Calif. “Scatchard plots” are derived from the KD and Bmax obtained with non linear regression analysis.
(§2) In the Biacore2000 system, binding constants from kinetic data are determined by passing varying concentrations of FN peptides (analytes) over chip surfaces which are coupled with PDGF-BB (ligand), respectively. All kinetic experiments are carried out at 20° C. at a flow rate of 20 μl/min. For mass transport experiments, each analyte is injected at a fixed concentration and run at flow rates ranging from 5 to 75 μl/min. All analytes are injected over PDGF-BB ligand surfaces as well as over a control surface for 120 s, followed by 300 s of dissociation in running buffer. Regeneration of the sensor chip for subsequent injections is accomplished by pulse of 0.1% SDS. Mass transport experiments have detected little difference in response at different flow rates thus validating data from kinetic experiments. Sensorgrams are prepared and globally fitted using nonlinear least-squares analysis and numerical integration of the differential rate equations with the Biacore Bioevaluation software. Each sensogram generated using a control surface is substracted from the corresponding experimental sensorgrams, and the resulting curves are transformed to concentration units using the molecular mass of the injected species, the equivalence of 1000 resonance units (RU) per 1 ng/mm^2, and a matrix thickness of 100 nm. Each data set, which consists of a series of sensorgrams from injections of different concentration of analyte over the same surface, are analyzed using kinetic models from Biaevaluation software.

[2] = target: T1, PDGF-BB (Homo sapiens, UniProt P01127); assay: Equilibrium binding of 125I-PDGF-BB to FN, FN domains and peptides; details: for PDGF-BB binding, in words: equilibrium binding and/or plasmon resonance; for Kd: equilibrium binding
Experimental: as §1

[3] = target: T1, PDGF-BB; assay: Surface plasmon resonance (Biacore), PDGF-BB; assay type: binding; details: plasmon resonance, kinetic binding
Experimental: as §2, with “Each sensogram generated using a control surface is substracted from the corresponding experimental sensorgrams, and the resulting curves are transformed to concentration units using the molecular mass of the injected species, the equivalence of 1000 resonance units (RU) per 1 ng/mm^2, and a matrix thickness of 100 nm.” left out

[4] = system: FN-null cells; assay: FN-null cell survival on surfaces coated with FN domains; assay type: cell-based, mouse; details: for FN-null cell survival / proliferation: FNIII8-11 ± named FN domain, or named FN construct, PDGF-BB added 2 hrs after plating; for FN-null cell survival / proliferation, summary statement: cells plated on named FN construct, or on FNIII8-11 ± named domain; for FN-null cell survival with PDGF at 3 days: surface precoated with 0.15 μM GST-tagged FNIII8-11 ± named FN domain, or named FN construct, PDGF-BB added 1 day after plating
Experimental: To further investigate the response of cells to PDGF-BB bound to FN domains, we investigated the survival response of mouse fibroblasts null for FN (FN−/−), or “FN-null”. First we determined the response of FN-null cells to PDGF-BB in the absence of serum or other sources of exogenous FN. […] Next, FN-null cells were plated on tissue culture plastic surfaces precoated with 0.15 μM GST-tagged FNIII8-11±other FN domains known to have PDGF-BB binding activity and then PDGF-BB added 1 day later. […] Importantly, differential response of FN-null cells, plated on different FN domains, to PDGF-BB was not secondary to differences in attachment as judged by cell counts two hours after plating. The FNIII8-11 central cell binding domain was present in all circumstances.

[5] = target: TGF-β1 (Homo sapiens, UniProt P01137); assay: Equilibrium binding of TGF-β1 to FN, FN domains and peptides; details: for TGF-β1 binding, in words: equilibrium and/or kinetic binding
Experimental: [The source words this procedure for another target and reports this target under the same test.] as §1

[6] = target: bFGF (FGF-2) (Homo sapiens, UniProt P09038); assay: Equilibrium binding of bFGF (FGF-2) to FN and FN domains
Experimental: [The source words this procedure for another target and reports this target under the same test.] as §1

[7] = target: T2, VEGF (Homo sapiens, UniProt P15692); assay: Surface plasmon resonance, VEGF; assay type: binding
T2 sequence (P15692 27-191 isoform P15692-4): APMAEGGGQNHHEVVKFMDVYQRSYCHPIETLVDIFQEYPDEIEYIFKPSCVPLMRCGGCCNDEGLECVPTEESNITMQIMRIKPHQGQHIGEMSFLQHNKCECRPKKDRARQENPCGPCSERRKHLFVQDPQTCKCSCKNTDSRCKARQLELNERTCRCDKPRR

[8] = system: FN-null cells; assay: FN-null cell assay, peptides added directly to medium on FNIII8-11; assay type: cell-based, mouse
Experimental: FIG. 6. FN-null fibroblast response to soluble, unconjugated P5 (SEQ ID NO:37). FN-null cells were cultured at 4,000 cells/well in 96 well plates precoated with 0.125 mM of FNIII8-11 in DMEM for 4 hrs, and then further incubated in DMEM+2% BSA with or without the indicated concentrations of Peptide 5 at 37° C. for 3 days. Cells were counted in three 10× fields in each of 4 wells (mean±SD, n−12).
Scrambled variants of peptides 1 and 5 had no activity in these assays.
Variants of peptide 5 derived from fibronectin were generated by removing one amino acid at a time from the N-terminus or C-terminus of Peptide 5 (Table 2). These peptides (P12-P24) were added directly to medium with or without PDGF-BB.

[9] = target: T3, PDGF-BB binding to FNIII1, FNIII12-14 and IIICS (Homo sapiens, UniProt P01127); assay: Inhibition by peptides of PDGF-BB binding to FN domains; details: all three FN domains
T3 construct: made in house; host or cells: E. coli BL21DE3LysS (FN domains only)
From the text: To further localize PDGF-BB binding within FNIIII, we acquired a peptide from the central 76 amino acids (aa) of FNIII1 (FN630-704) (FIG. 4), which has anti-angiogenic properties and promotes FN polymerization. […] Next, we looked for sequence homologies within the two halves of the peptide and discovered the sequence pattern noted above ([QN]-X(1,2)-[ST]-X(0,1)-[IG]-[QS]-[KRQ]-[YTM]-[IG]-X(4,5)-X(0,1)-[KR]-X(1,2)-X(1,2)-[RT]-X(1,2)-[KQTS]-X(2)-T) (SEQ ID NO:30) (see peptides 1-4). […] These findings may explain similar PDGF-BB binding among FN heparin-binding domains, FNIII12-V15, FNIII12-15, FNIII12-14, FNIII12-13, and IIICS. […] Next, we determined if PDGF-BB-binding peptides from FNIII1 could inhibit PDGF-BB binding to FNIII1, FNIII12-14 and IIICS. For initial experiments we selected peptide 1 and peptide 2. For control, we used scrambled peptide 1.

[10] = target: T4, bFGF binding to recombinant FN domain (Homo sapiens, UniProt P09038); assay: Inhibition by peptide of bFGF binding to recombinant FN domains
T4 construct: made in house; host or cells: E. coli BL21DE3LysS (FN domains only)

[11] = target: T5, TGF-β1 binding to recombinant FN domain (Homo sapiens, UniProt P01137); assay: Inhibition by peptide of TGF-β1 binding to recombinant FN domains
T5 construct: made in house; host or cells: E. coli BL21DE3LysS (FN domains only)

[12] = target: EGF (Homo sapiens, UniProt P01133); assay: Binding of EGF to FN, FN domains and peptides
[13] = target: FGF-1 (Homo sapiens, UniProt P05230); assay: Binding of FGF-1 to FN, FN domains and peptides
[14] = target: TGF-α (Homo sapiens, UniProt P01135); assay: Binding of TGF-α to FN, FN domains and peptides
[15] = peptide added directly to media with or without PDGF-BB

T1 sequence (P01127 82-190 limits assumed): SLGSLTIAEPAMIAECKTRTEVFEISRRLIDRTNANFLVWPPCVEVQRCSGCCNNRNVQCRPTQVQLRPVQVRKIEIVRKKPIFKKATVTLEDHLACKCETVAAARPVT
TGF-β1, sequence (P01137 279-390 limits assumed): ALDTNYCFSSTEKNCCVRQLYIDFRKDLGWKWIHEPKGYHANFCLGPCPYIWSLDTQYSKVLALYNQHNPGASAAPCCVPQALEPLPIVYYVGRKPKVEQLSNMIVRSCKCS
bFGF (FGF-2), sequence (P09038 143-288): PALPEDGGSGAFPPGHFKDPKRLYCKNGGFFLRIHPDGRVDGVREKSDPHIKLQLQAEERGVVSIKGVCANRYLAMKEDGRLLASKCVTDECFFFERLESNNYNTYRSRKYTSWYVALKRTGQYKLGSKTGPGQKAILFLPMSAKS
T3 sequence (P01127 82-190 limits assumed): as the sequence (P01127 82-190 limits assumed) above
EGF, sequence (P01133 971-1023 limits assumed, species assumed): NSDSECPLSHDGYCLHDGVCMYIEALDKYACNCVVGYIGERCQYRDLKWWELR
TGF-α, sequence (P01135 40-89, species assumed): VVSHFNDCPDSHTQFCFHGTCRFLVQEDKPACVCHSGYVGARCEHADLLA
T4 sequence (P09038 134-288 limits assumed): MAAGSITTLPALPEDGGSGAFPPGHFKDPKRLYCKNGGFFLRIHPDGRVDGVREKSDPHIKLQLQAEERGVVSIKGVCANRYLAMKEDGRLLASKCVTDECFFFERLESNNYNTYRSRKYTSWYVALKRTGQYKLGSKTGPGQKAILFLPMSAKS
FGF-1, sequence (P05230 whole entry, species assumed, the tested form may be a part): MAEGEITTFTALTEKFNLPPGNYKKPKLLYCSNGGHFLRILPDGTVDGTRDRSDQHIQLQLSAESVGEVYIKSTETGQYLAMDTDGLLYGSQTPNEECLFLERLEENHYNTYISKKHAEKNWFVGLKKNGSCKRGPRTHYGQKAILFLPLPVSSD
T5 sequence (P01137 279-390 limits assumed): as the sequence (P01137 279-390 limits assumed) above

## FN70: 70 kDa amino terminus of FN, which includes fibrin and gelatin binding domains
[1]
  Binding of the GFs tested, in words: None of the GFs detectably bound; also recorded: In no case did any GF bind
[2]
  PDGF-BB binding, in words: did not

## FN630-667: half of the 76 aa FNIII1 peptide FN630-704
[2]
  PDGF-BB binding, in words: demonstrated PDGF-BB binding

## FN668-704: half of the 76 aa FNIII1 peptide FN630-704
[2]
  PDGF-BB binding, in words: demonstrated PDGF-BB binding

## FNIII1-2: recombinant FN domain, first and second type III repeat
[3]
  Kd: 9.1 nM
[4]
  FN-null cell survival / proliferation: enhance survival
[1]
  Binding of the GFs tested, in words: all four GFs bound
[2]
  Kd: 37 nM

## FNIII1-11: recombinant FN domain; FNIII1 PDGF-binding domain contiguous with FNIII8-11 cell-binding domain
[4]
  FN-null cell survival in the absence of PDGF-BB: survived
  FN-null cell survival / proliferation: robust proliferation
  FN-null cell survival / proliferation, summary statement: survived in the absence of PDGF-BB and proliferated in its presence
  FN-null cell survival with PDGF at 3 days: best survival response
[5]
  TGF-β1 binding, in words: bound
[6]; equilibrium and/or kinetic binding
  bFGF (FGF-2) binding, in words: did not
[2]
  PDGF-BB binding, in words: bound
[7]
  VEGF binding, in words: did not

## FNIII1: recombinant FN domain, first type III repeat
[3]
  Kd: 370 nM
[4]
  FN-null cell survival with PDGF at 3 days: increased survival
[5]; method not restated (equilibrium and kinetic binding performed)
  Kd: 6.2 nM
[1]
  Binding of the GFs tested, in words: all four GFs bound
[2]
  Kd: 32 nM

## FNIII2: recombinant FN domain, second type III repeat
[1]
  Binding of the GFs tested, in words: all four GFs bound

## FNIII8-11: classic cell-binding domain of FN containing RGD
[4]
  FN-null cell survival / proliferation, summary statement: failed to survive even in the presence of PDGF-BB; also recorded: did not support cell survival
  FN-null cell survival with PDGF at 3 days: failed to survive
[1]
  Binding of the GFs tested, in words: None of the GFs detectably bound; also recorded: In no case did any GF bind
[2]
  PDGF-BB binding, in words: did not

## FNIII8-V15: FN functional domain containing FNIII8-11 plus a GF-binding domain
[4]
  FN-null cell survival / proliferation: robust proliferation
  FN-null cell survival / proliferation, summary statement: survived in the absence of PDGF-BB and proliferated in its presence

## PSHISKYILRWRPK [P12]
[8]; [15]
  FN null cell survival and proliferation: smallest peptide capable of supporting FN-null cell survival or proliferation

## PSLAKKQRFRHRNR
[8]; in the presence of PDGF-BB
  FN null cell survival and proliferation: supported FN null cell survival and proliferation

## QLISIQQYGHQEVTRFDFTTTSTST [peptide 2]
[9]
  Inhibition of PDGF-BB binding to FNIII1, FNIII12-14 and IIICS: neither peptide 2, nor the scramble variant of peptide 1 (FN634-658s), demonstrated inhibition

## QPSHISKY
[5]
  TGF-β1 binding, in words: minimal binding activity

## QPSHISKYILRWRPKNSVGRWKEAT [peptide 1]
[9]
  Inhibition of PDGF-BB binding to FNIII1, FNIII12-14 and IIICS: marked inhibition
[10]
  Inhibition of bFGF binding to any recombinant FN domain: completely inhibited
[11]
  Inhibition of TGF-β1 binding to any recombinant FN domain: completely inhibited
[8]; [15]
  FN null cell survival and proliferation: supported FN null cell survival and proliferation

## QPSVGQQMIFEEHGFRRTTPPTTAT [peptide 4]
[5]; equilibrium binding
  Kd: 100 nM

## anastellin: 76-aa peptide within FNIII1; anti-angiogenic, promotes FN polymerization [reference compound]
[1]
  Binding of the GFs tested, in words: all but VEGF bound
[2]
  PDGF-BB binding, in words: demonstrated PDGF-BB binding

## intact FN: intact human plasma fibronectin (SEQ ID NO:1)
[12]
  EGF binding, in words: did not
[4]
  FN-null cell survival / proliferation: robust proliferation
  FN-null cell survival / proliferation, summary statement: survived in the absence of PDGF-BB and proliferated in its presence
[13]
  FGF-1 binding, in words: did not
[5]; equilibrium binding
  Kd: 53 nM
[6]; equilibrium binding, intact FN, read-out: KD, FGF-2 (bFGF) binding
  Kd: 44 nM
[2]
  Kd: 49 nM
[14]
  TGF-α binding, in words: did not

— patent publication US8759300B2, “Polypeptides and methods of use” (The Research Foundation for the State University of New York, priority 2007, dated 2014)
